The text below walks through data of patent US8981046B2, “Synthetic cell platforms and methods of use thereof” (The Regents of the University of California, priority 2007, dated 2015).

Assay [1] deals with neural stem cells. The assay is described as follows: qRT-PCR marker expression / differentiation of NSCs on peptide-modified hydrogels. The class given is cell-based, rat. From the text: Stem cells are defined not only by their self-renewal but also their ability to undergo differentiation into one or more phenotypes. […] Therefore, the synthetic IPN, displaying an integrin-binding peptide, was able to substitute for laminin in supporting NSC proliferation and differentiation.
The effects of varying peptide identity and density on NSC differentiation were explored.
The box plots summarize the distribution of points, where the thick line signifies the median and the ends of the box are the 25th and 75th quartiles.
On the technique in general: Quantitative PCR measures a nucleic acid by following its amplification.

In assay [2] the test system is neural stem cells. The assay is described as follows: NSC adhesion and proliferation on peptide-modified IPNs. It is filed as cell-based, rat. The source says:
Neural stem cells are typically cultured on surfaces consisting of a poly(styrene)-based material with a passively adsorbed, animal-derived extracellular matrix (ECM) protein such as laminin or fibronectin.^67, 69 However, both animal- and human-derived ECM or proteins likely contain variable splice and glycoforms, offer limited micro- and nano-scale control of solid-phase signaling, pose problems with lot to lot variability, and otherwise present problems for therapeutic application.^16, 70 The ability of a peptide-modified interpenetrating polymer network (IPN) synthesized from acrylamide (AAm), poly(ethylene glycol) monomethyl ether monomethacrylate (pEGMA), and acrylic acid (AAc) monomers to support NSC growth was explored. NSCs isolated from the adult rat hippocampus,^67 were seeded onto 15 amino-acid bone sialoprotein RGD peptide [bsp-RGD(15)]-modified IPNs at various cell densities over four orders of magnitude.
FIG. 3.a-d) Bright field images of neural stem cells grown on peptide-modified IPNs or laminin-I in proliferating media conditions (1.2 nM FGF-2). e) Growth curves for proliferation of neural stem cells as assayed by a total nucleic acid stain. Data represent mean±standard deviation of 3-5 samples. Surfaces not in the same group (*, §, †, or ‡) were statistically different from one another (p<0.05; ANOVA between groups with Tukey-Kramer Honestly Significant Difference post-hoc test).

Assay [3] concerns neural stem cells. The assay is described as follows: NSC proliferation on peptide-grafted IPNs after 5 days (Cyquant). It is filed as cell-based, rat. To be noted: for cell proliferation: Cyquant, normalized to cells seeded. The source says:
Cell proliferation was quantified on peptide-grafted IPN surfaces after 5 days with Cyquant. The cell number was normalized to the amount of cells seeded on the IPN surfaces.

A further assay relates to H1 hES cells. The assay is described as follows: H1 hES cell culture on peptide-conjugated IPN surfaces in NC-SFM. The class given is cell-based, human. To be noted: for hESC culture outcome (Oct4, survival): H1 cells, NC-SFM, peptide-conjugated IPN. As to the method:
To take an important step towards a fully chemically defined microenvironment, H1 hES cells were cultured,^17 for which a serum-free, defined medium has been developed. In addition, this feeder-free system involves culturing cells on tissue culture polystyrene coated with Matrigel, an ECM mixture of predominantly […], collagen IV, and heparan sulfate.^19, 82 Cells were grown in non-conditioned, serum free medium (NC-SFM), which consists of X-VIVO 10 (Cambrex, Walkersville, Md.) medium supplemented with 0.5 ng/mL TGF-β1 and 80 ng/mL FGF-2 (Invitrogen).
Cultures on Matrigel consisted of Oct4^+ hESC colonies interspersed with differentiated, Oct4-stromal cells derived from the hESCs, as previously described (note that the hESCs can be selectively passaged by timing the enzymatic digest).^82 H1 cells were also cultured in the NC-SFM on bsp-RGD(15) conjugated IPN surfaces (identical to those in FIGS. 3-4). […] Both HSF6 cells on the sIPN (FIG. 7) and H1 cells on the IPN were able to maintain Oct4 expression for 3 passages (˜10 days).

In a further assay the test system is Akt. Kind of assay: Akt activation in neural stem cells on peptide hydrogels (Western blotting). The following applies: NSCs on biomimetic hydrogel. It is filed as cell-based, rat. The source says: The phosphoinositide-3 kinase (PI 3-kinase) signaling pathway, which can be activated by numerous cell surface receptors, has been implicated in regulating cell survival and proliferation in a number of contexts.^90-92 After ligation and activation of canonical receptors, phosphorylation of receptor tails on specific tyrosine residues recruits PI 3-kinase to the cell surface to phosphorylate phosphoinositide lipids. These lipids then recruit several kinases, including PDK1 and Akt. Phosphorylation of the latter by the former activates Akt, which then modulates a number of downstream effectors (such as Bad, mTOR, forkhead transcription factors, GSK-3β, and others) important in cell survival, proliferation, and other functions.^92, 93 Very importantly, PI 3-kinase and Akt signaling may be a general pathway important for stem cell proliferation and self-renewal. […] Finally, chemical or genetic inhibition of this pathway inhibits self-renewal, whereas overexpression of transducers in this pathway promotes self-renewal in a mitogen-independent fashion.
FIG. 8. […] Likewise relocalization of a PH-GFP genetic sensor to the cell surface acts as a sensor of PI 3-kinase signal activation after FGF-2 addition. An analogous genetic sensor of Akt based on FRET has been generated.^6
Background: In western blotting, separated proteins are transferred to a membrane and probed.

Assay [4] deals with neural stem cells. Kind of assay: Initial NSC attachment on peptide-grafted IPNs (Cyquant, 6 hours). It is filed as cell-based, rat. To be noted: various grafting concentrations. The procedure:
IPNs were grafted with RGD, 7C-9, and 7C-24 peptides at various concentrations. After allowing neural stem cells attach to the surface for 6 hours, the amount of cells was quantified with Cyquant, a fluorescent DNA-binding dye.

Assay [5] relates to neural stem cells. Kind of assay: Flow cytometry binding of clonal peptide-displaying bacteria to neural stem cells. The following applies: clonal bacterial populations after third round of selection. The arrangement: species or system rat. The source says: This technology has also been used to identify peptides capable of binding to the surface of adult neural stem cells. Both N- and C-terminal peptide display libraries were screened on NSCs, with the first two rounds selected through centrifugal pelleting of NSCs to isolate bacterial clones displaying binding peptides, and the third round selected through FACS. Following the third round, numerous peptide clones were sequenced (˜30 novel sequences determined to date).
Three different, validated peptide libraries were pooled to generate a large library (>10^10 independent clones) and were used for selection and screening.^79 These libraries include a random 15-mer (—X15—) fused to either the N- or C-terminus of the CPX display scaffold and an N-terminal constrained library of the form X2CX7CX2. The library has been made intrinsically fluorescent using a bicistronic expression vector to enable co-expression of a green fluorescent protein optimized for FACS.
The bacterial library was screened for binding peptides. For the first two cycles, screening was again conducted by co-sedimentation, where as many as 10^8 NSCs suspended via mechanical disruption in 0.5 mM EDTA as described^82 were incubated with 10^10 bacteria prior to several gentle centrifugations and rinses. The resulting mixture was added directly to bacterial media (LB) for expansion of the binding clones. The second cycle repeated this process with 10-fold fewer bacteria for higher stringency. In the third cycle, after incubation with 10^6 NSCs and washing, cells were sorted (as in FIGS. 5-6) using a DAKO-Cytomation MoFlo flow cytometer in the UC Berkeley Cancer Center to stringently isolate bacteria that are bound to NSCs. The resulting sorted bacteria were expanded. Plasmid DNA was isolated from a number of individual clones (at least 100)^79 and subjected to DNA sequencing to identify the peptide responsible for binding to the NSC surface.
Bacterial peptide display libraries were constructed, as described above, and tested for binding capacity to neural stem cells. Clonal populations of the bacterial peptide display libraries after the third round of selection were analyzed via flow cytometry to measure the binding capacity of the clones. Sequences of the clones were determined through DNA sequence of the plasmid expressed by the bacteria. Table 5 presents amino acid sequences of peptides and the binding capacity to NSCs of bacterial clones displaying the peptides.
(A flow cytometer gives signals particle by particle.)

The mark [6] stands for this setting: peptide hydrogel vs laminin, proliferating or differentiating media.

For the sequence “CGGNGEPRGDTYRAY [bsp-RGD(15), 15 amino-acid bone sialoprotein RGD peptide]”, in the assay on neural stem cells [1] (21 pmol·cm^−2 peptide hydrogel vs laminin, 1.2 nM FGF-2), the “nestin expression (qRT-PCR)” value is recorded as “statistically indistinguishable levels of nestin”. In the assay with neural stem cells [1] (setting [6]), the “GFAP expression (qRT-PCR)” value was “equal levels” and the “β-tubulin III expression (qRT-PCR)” value was “equal levels”. Also, the NSC proliferation entry with neural stem cells [2] (highest peptide density, vs laminin-coated surfaces, p<0.05) is “slightly faster cell proliferation than standard laminin-coated surfaces”. The “cell adhesion on IPN with lower peptide density” value in the assay with neural stem cells [2] (lower or no bsp-RGD(15), proliferating media) is reported as “cells did not adhere effectively”. The cell proliferation result in the assay with neural stem cells [3] is “much higher amount of cell proliferation than 7C-9 and 7C-24-grafted surfaces”. For the same sequence, in the assay on H1 hES cells (H1 cells on the IPN (~10 days)), the “maintenance of Oct4 expression” value was determined as 3 passages. Besides, the “hESC culture outcome (Oct4, survival)” value in the assay with H1 hES cells was “high Oct4 levels in large hESC colonies”. Besides, the “activation of Akt” value with Akt is reported as “activation of Akt to a greater extent than a surface displaying the negative control bsp-RGE(15) peptide”.
For “CGGNGEPRGETYRAY [bsp-RGE(15), negative control peptide]”, in the assay with neural stem cells [1] (as bsp-RGD(15) density was decreased and this peptide increased), the “neuronal differentiation / neuronal marker expression” value was “neuronal differentiation decreased”. In the assay on neural stem cells [2] (proliferating media conditions (20 ng/ml FGF-2)), the “cell adhesion and morphology on peptide-modified IPN” value is reported as “did not support attachment”. In addition, the cell proliferation entry with neural stem cells [3] is recorded as “little or no cells detached”. For the same sequence, in the assay with H1 hES cells, the “hESC culture outcome (Oct4, survival)” value is reported as “cells predominantly died”. In addition, the cell attachment result with neural stem cells [4] is “below the detection limit of the assay”.
Regarding DHKFGLVMLNKYAYAG [Clone 15-2], the “% NSCs with Bacteria” value in the assay on neural stem cells [5] is recorded as 75.9%.
The same measure, in the same setting: the value for DLCTYGHLWLGNGRP [Clone 15-59] was 22.5%; that for ESCWYQIMYKCAN [Clone 7C-2] was 55.2%.
For the sequence ESGLKVMCMKYYCMA [Clone 15-52], the “% NSCs with Bacteria” value in the assay with neural stem cells [5] worked out at 63.3%.
Still for that read-out and setting: the value for FWCIRGEYWVCDR [Clone 7C-12] was 64.5%; that for GECFYYVMNTCVW [Clone 7C-6] was 61.8%; that for GFVLVWSYTCRCWGK [Clone 15-50] was 64.9%.
Still for that read-out and setting: the value for GGCRWYAKWVCVW [Co-3] was 75.7%.
IWCGSRFGCWCKP [Clone 7C-5]: in the assay with neural stem cells [5], the “% NSCs with Bacteria” value is given as 65.6%.
Take KLCCFDKGYYCMR [Clone 7C-9]: the “% NSCs with Bacteria” value in the assay on neural stem cells [5] was found to be 71.3%. The “cell proliferation at similar surface peptide concentration” value in the assay on neural stem cells [3] (low peptide surface concentrations, vs RGD surfaces) is “slower proliferation”.
Regarding LCCESYICALCHY [Clone 7C-11], the “% NSCs with Bacteria” value in the assay on neural stem cells [5] came to 37.7%.
Same read-out and setting: the value for LECPGESKYYCIY [Co-11] was 72.7%; that for LECTERGDFNCFV [Clone 7C-7] was 47.8%.
With LEDAMGWALSWGHIW [Clone 15-6], in the assay with neural stem cells [5], the “% NSCs with Bacteria” value is given as 70.2%.
For the sequence LNCAMYNACIW [Clone 7C-14], in the assay on neural stem cells [5], the “% NSCs with Bacteria” value is given as 54.5%.
As for LVCNRQNPWVCYI [Co-23], the “% NSCs with Bacteria” value with neural stem cells [5] amounted to 71.1%.
As for MYCERDSKYWCIH [Co-21], the “% NSCs with Bacteria” value in the assay on neural stem cells [5] was determined as 70.9%.
On the same count and under the same terms, the value for QCCQLRGDAVCNC [Clone 7C-15] was 54.0%; that for QGCAFVTYWACIF [Co-16] was 71.9%; that for RLCCWKTQYFCEI [Co-20] was 70.9%.
Same read-out and setting: the value for RRELVRMTDWVWVSG [Clone 15-32] was 70.4%; that for SDWSVLLSCERWYCI [Clone 15-16] was 63.9%; that for SKCWGWTPYYCVA [Co-9] was 75.7%.
On to SLCAAYNRWACIW [Co-1], for which the “% NSCs with Bacteria” value with neural stem cells [5] is given as 73.8%.
Still for that read-out and setting: then STCSWVSSYVCIM [Co-13], with 64.8%.
As to VWCGMFGKRRCVT [Co-22], the “% NSCs with Bacteria” value in the assay with neural stem cells [5] worked out at 75.6%.
Same read-out and setting: the value for WDCGKKNAWMCIW [Co-5] was 67.4%.
On the same count and under the same terms, then WECAEESKFWCVF [Co-17], with 72.1%; and WFCLLGRSAYCVR [Clone 7C-3], with 71.9%; and WLCKGSNKYMCEW [Clone 7C-17], with 67.8%.
The same measure, in the same setting: then WLCLDKNCMACVW [Clone 7C-8], with 68.8%; and WMCSGVQPNACVW [Clone 7C-22], with 46.9%.
On to WNCIKGSSWACVW [Clone 7C-21], for which, in the assay with neural stem cells [5], the “% NSCs with Bacteria” value is listed as 75.5%.
Still for that read-out and setting: the value for WQCGRFWCIHCLW [Co-19] was 50.6%; that for WRCLGDGYHACVR [Co-10] was 72.7%.
Take WSCPKVNQYACFW [Co-2]: the “% NSCs with Bacteria” value in the assay on neural stem cells [5] came to 74.8%.
Same read-out and setting: then WTWESAFAGRWEVGD [Co-8], with 61.7%; and WVCIWERFKSCNE [Clone 7C-20], with 65.7%.
Still for that read-out and setting: then WVCLWRHRGDCSI [Co-12], with 74.3%.
Same read-out and setting: the value for WVCNDLIHHFCVW [Co-15] was 70.9%; that for WVCNKLGVYACEY [Clone 7C-19] was 20.5%; that for WWCDMRGDSRCSG [Clone 7C-24] was 61.7%.
Consider WWCKKPEYWYCIW [Co-18], for which the “% NSCs with Bacteria” value with neural stem cells [5] came out at 71.3%.
WYCFRENKYVCVM [Clone 7C-1]: the “% NSCs with Bacteria” value in the assay on neural stem cells [5] turned out to be 75.2%.
As for YMCMSRGDATCDV [Clone 7C-4], the “% NSCs with Bacteria” value in the assay with neural stem cells [5] came out at 62.0%.
